# Experimental data published in ChEMBL document CHEMBL1201862, “PubChem BioAssay data set” (2004).
#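 Exposure lasted 48 hours, with cells grown in 96-well plates and compounds tested at five concentrations. GI50: concentration for 50% inhibition of growth.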 Calls of active or inactive are those of the source. Rule as the data show it: active = GI50 up to about 1.1 µM and inactive = higher.
# Tests used:
# Assay in all cases: NCI tumour cell line growth inhibition, 48 h
# 786-0 = test system: 786-0
# A549 = test system: A549
# ACHN = test system: ACHN
# BT-549 = test system: BT-549
# CAKI-1 = test system: CAKI-1
# CCRF-CEM = test system: CCRF-CEM
# COLO 205 = test system: COLO 205
# DU-145 = test system: DU-145
# EKVX = test system: EKVX
# HCC 2998 = test system: HCC 2998
# HCT-116 = test system: HCT-116
# HCT-15 = test system: HCT-15
# HL-60 = test system: HL-60
# HOP-62 = test system: HOP-62
# HOP-92 = test system: HOP-92
# HT-29 = test system: HT-29
# Hs-578T = test system: Hs-578T
# IGROV-1 = test system: IGROV-1
# K562 = test system: K562
# KM12 = test system: KM12
# LOX IMVI = test system: LOX IMVI
# M14 = test system: M14
# MCF7 = test system: MCF7
# MDA-MB-231 = test system: MDA-MB-231
# MDA-MB-435 = test system: MDA-MB-435
# MDA-N = test system: MDA-N
# MOLT-4 = test system: MOLT-4
# Malme-3M = test system: Malme-3M
# NCI-H226 = test system: NCI-H226
# NCI-H23 = test system: NCI-H23
# NCI-H460 = test system: NCI-H460
# NCI-H522 = test system: NCI-H522
# NCI/ADR-RES = test system: NCI/ADR-RES
# OVCAR-3 = test system: OVCAR-3
# OVCAR-4 = test system: OVCAR-4
# OVCAR-5 = test system: OVCAR-5
# OVCAR-8 = test system: OVCAR-8
# PC-3 = test system: PC-3
# RPMI-8226 = test system: RPMI-8226
# RXF 393 = test system: RXF 393
# SF-268 = test system: SF-268
# SF-295 = test system: SF-295
# SF-539 = test system: SF-539
# SK-MEL-28 = test system: SK-MEL-28
# SK-MEL-2 = test system: SK-MEL-2
# SK-MEL-5 = test system: SK-MEL-5
# SK-OV-3 = test system: SK-OV-3
# SN12C = test system: SN12C
# SNB-19 = test system: SNB-19
# SNB-75 = test system: SNB-75
# SR = test system: SR
# SW-620 = test system: SW-620
# T47D = test system: T47D
# TK-10 = test system: TK-10
# U-251 = test system: U-251
# UACC-257 = test system: UACC-257
# UACC-62 = test system: UACC-62
# UO-31 = test system: UO-31
# A498 = test system: A498
compound,measurement,setting,value
Clc1nc2c(N3CCCC3)nc(N3CCNCC3)nc2[nH]1,GI50,786-0,17.8 µM (inactive)
same,GI50,A549,17.9 µM (inactive)
same,GI50,ACHN,19.9 µM (inactive)
same,GI50,BT-549,29.4 µM (inactive)
same,GI50,CAKI-1,39 µM (inactive)
same,GI50,CCRF-CEM,19.4 µM (inactive)
same,GI50,COLO 205,16.4 µM (inactive)
same,GI50,DU-145,16.4 µM (inactive)
same,GI50,EKVX,17.3 µM (inactive)
same,GI50,HCC 2998,15.9 µM (inactive)
same,GI50,HCT-116,16 µM (inactive)
same,GI50,HCT-15,18.9 µM
same,GI50,HL-60,19.5 µM (inactive)
same,GI50,HOP-62,20 µM (inactive)
same,GI50,HOP-92,16.6 µM (inactive)
same,GI50,HT-29,17.4 µM (inactive)
same,GI50,Hs-578T,> 100 µM (inactive)
same,GI50,IGROV-1,17.9 µM (inactive)
same,GI50,K562,23.1 µM (inactive)
same,GI50,KM12,18.1 µM (inactive)
same,GI50,LOX IMVI,15.8 µM (inactive)
same,GI50,M14,19.7 µM (inactive)
same,GI50,MCF7,17.7 µM (inactive)
same,GI50,MDA-MB-231,16.4 µM (inactive)
same,GI50,MDA-MB-435,18.7 µM (inactive)
same,GI50,MDA-N,17.6 µM (inactive)
same,GI50,MOLT-4,20.9 µM (inactive)
same,GI50,Malme-3M,20.7 µM (inactive)
same,GI50,NCI-H226,> 100 µM (inactive)
same,GI50,NCI-H23,16.9 µM (inactive)
same,GI50,NCI-H460,17.6 µM (inactive)
same,GI50,NCI-H522,17 µM (inactive)
same,GI50,NCI/ADR-RES,37.2 µM (inactive)
same,GI50,OVCAR-3,18 µM (inactive)
same,GI50,OVCAR-4,18.5 µM (inactive)
same,GI50,OVCAR-5,19.3 µM (inactive)
same,GI50,OVCAR-8,16 µM (inactive)
same,GI50,PC-3,17.8 µM (inactive)
same,GI50,RPMI-8226,21.3 µM (inactive)
same,GI50,RXF 393,14.1 µM (inactive)
same,GI50,SF-268,19.2 µM (inactive)
same,GI50,SF-295,18.7 µM (inactive)
same,GI50,SF-539,18.4 µM (inactive)
same,GI50,SK-MEL-28,22.3 µM (inactive)
same,GI50,SK-MEL-2,18.4 µM (inactive)
same,GI50,SK-MEL-5,15.1 µM (inactive)
same,GI50,SK-OV-3,18.2 µM (inactive)
same,GI50,SN12C,18.6 µM (inactive)
same,GI50,SNB-19,17.6 µM (inactive)
same,GI50,SNB-75,20.1 µM (inactive)
same,GI50,SR,16.9 µM (inactive)
same,GI50,SW-620,21.2 µM (inactive)
same,GI50,T47D,16.9 µM (inactive)
same,GI50,TK-10,57.5 µM (inactive)
same,GI50,U-251,17.2 µM (inactive)
same,GI50,UACC-257,19.3 µM (inactive)
same,GI50,UACC-62,17.4 µM (inactive)
same,GI50,UO-31,15.7 µM (inactive)
COCC[N+](CCNC(=O)c1cccc2c(N)c3cccc(C)c3nc12)(CCOC)Cc1ccc([N+](=O)[O-])cc1,GI50,786-0,19.1 µM (inactive)
same,GI50,A549,13.5 µM (inactive)
same,GI50,ACHN,32.4 µM (inactive)
same,GI50,BT-549,21.8 µM (inactive)
same,GI50,CAKI-1,> 100 µM (inactive)
same,GI50,CCRF-CEM,6.15 µM (inactive)
same,GI50,COLO 205,16.1 µM (inactive)
same,GI50,DU-145,17 µM (inactive)
same,GI50,EKVX,24.2 µM (inactive)
same,GI50,HCC 2998,4.92 µM (inactive)
same,GI50,HCT-116,17.2 µM (inactive)
same,GI50,HCT-15,41.8 µM
same,GI50,HL-60,12.9 µM (inactive)
same,GI50,HOP-62,31.8 µM (inactive)
same,GI50,HOP-92,29 µM (inactive)
same,GI50,HT-29,18.8 µM (inactive)
same,GI50,Hs-578T,10.8 µM (inactive)
same,GI50,IGROV-1,11.1 µM (inactive)
same,GI50,KM12,14.5 µM (inactive)
same,GI50,LOX IMVI,23.1 µM (inactive)
same,GI50,M14,29.6 µM (inactive)
same,GI50,MCF7,19.4 µM (inactive)
same,GI50,MDA-MB-231,28.1 µM (inactive)
same,GI50,MDA-MB-435,30 µM (inactive)
same,GI50,MDA-N,31.1 µM (inactive)
same,GI50,MOLT-4,3.57 µM (inactive)
same,GI50,NCI-H23,29.8 µM (inactive)
same,GI50,NCI-H460,6.47 µM (inactive)
same,GI50,NCI-H522,5.37 µM (inactive)
same,GI50,NCI/ADR-RES,88.3 µM (inactive)
same,GI50,OVCAR-3,16.7 µM (inactive)
same,GI50,OVCAR-4,43.3 µM (inactive)
same,GI50,OVCAR-5,30.9 µM (inactive)
same,GI50,OVCAR-8,26.6 µM (inactive)
same,GI50,PC-3,9.53 µM (inactive)
same,GI50,RPMI-8226,5.6 µM (inactive)
same,GI50,SF-268,12.4 µM (inactive)
same,GI50,SF-295,28.4 µM (inactive)
same,GI50,SF-539,17.3 µM (inactive)
same,GI50,SK-MEL-28,13.8 µM (inactive)
same,GI50,SK-MEL-2,28.8 µM (inactive)
same,GI50,SK-MEL-5,4.53 µM (inactive)
same,GI50,SN12C,32.9 µM (inactive)
same,GI50,SNB-19,40.4 µM (inactive)
same,GI50,SNB-75,27 µM (inactive)
same,GI50,SR,2.99 µM (inactive)
same,GI50,SW-620,21.1 µM (inactive)
same,GI50,T47D,18.1 µM (inactive)
same,GI50,TK-10,67.3 µM (inactive)
same,GI50,U-251,19.8 µM (inactive)
same,GI50,UACC-257,16.9 µM (inactive)
same,GI50,UACC-62,16 µM (inactive)
same,GI50,UO-31,63 µM (inactive)
Cc1oc2c(c1C)S(=O)(=O)C(C#N)=CN2,GI50,786-0,> 100 µM (inactive)
same,GI50,A498,> 100 µM (inactive)
same,GI50,A549,> 100 µM (inactive)
same,GI50,ACHN,> 100 µM (inactive)
same,GI50,BT-549,> 100 µM (inactive)
same,GI50,CAKI-1,> 100 µM (inactive)
same,GI50,COLO 205,> 100 µM (inactive)
same,GI50,DU-145,> 100 µM (inactive)
same,GI50,EKVX,> 100 µM (inactive)
same,GI50,HCC 2998,> 100 µM (inactive)
same,GI50,HCT-116,> 100 µM (inactive)
same,GI50,HCT-15,> 100 µM
same,GI50,HOP-62,> 100 µM (inactive)
same,GI50,HOP-92,> 100 µM (inactive)
same,GI50,HT-29,> 100 µM (inactive)
same,GI50,Hs-578T,> 100 µM (inactive)
same,GI50,IGROV-1,> 100 µM (inactive)
same,GI50,K562,> 100 µM (inactive)
same,GI50,KM12,> 100 µM (inactive)
same,GI50,LOX IMVI,> 100 µM (inactive)
same,GI50,M14,> 100 µM (inactive)
same,GI50,MCF7,> 100 µM (inactive)
same,GI50,MDA-MB-231,> 100 µM (inactive)
same,GI50,MDA-MB-435,> 100 µM (inactive)
same,GI50,MDA-N,> 100 µM (inactive)
same,GI50,MOLT-4,> 100 µM (inactive)
same,GI50,Malme-3M,42.2 µM (inactive)
same,GI50,NCI-H226,> 100 µM (inactive)
same,GI50,NCI-H23,> 100 µM (inactive)
same,GI50,NCI-H460,> 100 µM (inactive)
same,GI50,NCI-H522,> 100 µM (inactive)
same,GI50,NCI/ADR-RES,> 100 µM (inactive)
same,GI50,OVCAR-3,> 100 µM (inactive)
same,GI50,OVCAR-4,> 100 µM (inactive)
same,GI50,OVCAR-5,> 100 µM (inactive)
same,GI50,OVCAR-8,> 100 µM (inactive)
same,GI50,PC-3,> 100 µM (inactive)
same,GI50,RPMI-8226,> 100 µM (inactive)
same,GI50,SF-268,> 100 µM (inactive)
same,GI50,SF-295,> 100 µM (inactive)
same,GI50,SF-539,> 100 µM (inactive)
same,GI50,SK-MEL-28,> 100 µM (inactive)
same,GI50,SK-MEL-2,> 100 µM (inactive)
same,GI50,SK-MEL-5,> 100 µM (inactive)
same,GI50,SK-OV-3,> 100 µM (inactive)
same,GI50,SN12C,> 100 µM (inactive)
same,GI50,SNB-19,> 100 µM (inactive)
same,GI50,SNB-75,65.3 µM (inactive)
same,GI50,SR,> 100 µM (inactive)
same,GI50,SW-620,> 100 µM (inactive)
same,GI50,T47D,> 100 µM (inactive)
same,GI50,TK-10,> 100 µM (inactive)
same,GI50,U-251,> 100 µM (inactive)
same,GI50,UACC-257,> 100 µM (inactive)
same,GI50,UACC-62,> 100 µM (inactive)
same,GI50,UO-31,> 100 µM (inactive)
